In the supplement of paper PMC10307832:

Key:
Assay in all cases: relative viability (nuclei count vs DMSO), 5 days (fraction); higher = more cells survive
HCC-15 = system: HCC-15
Procedure, shortened: (§1)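 After 5 days of treatment, lung cancer cells in 1536-well plates were fixed and stained in a single step (final 0.05% Triton X-100, 1% formaldehyde, 1 ug/ml Hoechst) and their nuclei counted on 4× images. Treatment had been applied by pin tool the day after seeding as one drug alone or as a fixed anchor-drug dose with five library-drug doses (not always all listed) in √10 steps. Relative viability is the nuclei count of treated wells divided by that of vehicle wells, and values are medians of duplicate plates.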

SK-LU-1 = system: SK-LU-1
Procedure, shortened: as §1

NCI-H1993 = system: NCI-H1993
Procedure, shortened: as §1

NCI-H1915 = system: NCI-H1915
Procedure, shortened: as §1

PC-3 [JPC-3] = system: PC-3 [JPC-3]
Procedure, shortened: as §1

NCI-H3122 = system: NCI-H3122
Procedure, shortened: as §1

NCI-H596 = system: NCI-H596
Procedure, shortened: as §1

EKVX = system: EKVX
Procedure, shortened: as §1

RERF-LC-KJ = system: RERF-LC-KJ
Procedure, shortened: as §1

HCC-827 = system: HCC-827
Procedure, shortened: as §1

NCI-H1755 = system: NCI-H1755
Procedure, shortened: as §1

COR-L 105 = system: COR-L 105
Procedure, shortened: as §1

LC-2-ad = system: LC-2-ad
Procedure, shortened: as §1

COR-L23 = system: COR-L23
Procedure, shortened: as §1

LCLC-97TM1 = system: LCLC-97TM1
Procedure, shortened: as §1

HCC-366 = system: HCC-366
Procedure, shortened: as §1

NCI-H1944 = system: NCI-H1944
Procedure, shortened: as §1

SK-MES-1 = system: SK-MES-1
Procedure, shortened: as §1

BEN = system: BEN
Procedure, shortened: as §1

LU99A = system: LU99A
Procedure, shortened: as §1

Which relative viability (HCC-15; first compound 0.2 µM) does the source give for COCC1(CO)C(=O)C2CCN1CC2 (stereo unspecified) [PRIMA-1MET] + CS(=O)(=O)CCNCc1ccc(-c2ccc3ncnc(Nc4ccc(OCc5cccc(F)c5)c(Cl)c4)c3c2)o1 [Lapatinib] (partner 2 µM) here?
Its relative viability is 0.811.

What about the relative viability (HCC-15; first compound 0.6325 µM) of the same compound?
The relative viability was 0.743.

What about the relative viability (HCC-15; first compound 2 µM) of the same compound?
Its relative viability is 0.777.

And the relative viability (HCC-15; first compound 6.325 µM)?
The relative viability was 0.853.

What about the relative viability (HCC-15; first compound 20 µM) of the same compound?
The relative viability was 0.623.

What about the relative viability (SK-LU-1; first compound 0.2 µM) of the same compound?
Its relative viability is 1.12.

What about the relative viability (SK-LU-1; first compound 0.6325 µM) of the same compound?
Its relative viability is 0.667.

And the relative viability (SK-LU-1; first compound 2 µM)?
The relative viability was 0.61.

What about the relative viability (SK-LU-1; first compound 6.325 µM) of the same compound?
Its relative viability is 0.784.

And the relative viability (SK-LU-1; first compound 20 µM)?
Its relative viability is 0.235.

And the relative viability (NCI-H1993; first compound 0.2 µM)?
The relative viability was 0.776.

What about the relative viability (NCI-H1993; first compound 0.6325 µM) of the same compound?
The relative viability was 0.776.

And the relative viability (NCI-H1993; first compound 2 µM)?
The relative viability was 0.731.

What about the relative viability (NCI-H1993; first compound 6.325 µM) of the same compound?
The relative viability was 0.771.

And the relative viability (NCI-H1993; first compound 20 µM)?
The relative viability was 0.759.

And the relative viability (NCI-H1915; first compound 0.2 µM)?
Its relative viability is 1.07.

What about the relative viability (NCI-H1915; first compound 0.6325 µM) of the same compound?
Its relative viability is 0.845.

And the relative viability (NCI-H1915; first compound 2 µM)?
The relative viability was 0.864.

What about the relative viability (NCI-H1915; first compound 6.325 µM) of the same compound?
The relative viability was 0.925.

What about the relative viability (NCI-H1915; first compound 20 µM) of the same compound?
The relative viability was 0.958.

What about the relative viability (PC-3 [JPC-3]; first compound 0.2 µM) of the same compound?
The relative viability was 0.544.

What about the relative viability (PC-3 [JPC-3]; first compound 0.6325 µM) of the same compound?
The relative viability was 0.392.

What about the relative viability (PC-3 [JPC-3]; first compound 2 µM) of the same compound?
Its relative viability is 0.456.

What about the relative viability (PC-3 [JPC-3]; first compound 6.325 µM) of the same compound?
Its relative viability is 0.447.

What about the relative viability (PC-3 [JPC-3]; first compound 20 µM) of the same compound?
Its relative viability is 0.478.

What about the relative viability (NCI-H3122; first compound 0.2 µM) of the same compound?
Its relative viability is 0.711.

And the relative viability (NCI-H3122; first compound 0.6325 µM)?
Its relative viability is 1.04.

What about the relative viability (NCI-H3122; first compound 2 µM) of the same compound?
The relative viability was 1.03.

What about the relative viability (NCI-H3122; first compound 6.325 µM) of the same compound?
Its relative viability is 0.996.

And the relative viability (NCI-H3122; first compound 20 µM)?
Its relative viability is 0.954.

What about the relative viability (NCI-H596; first compound 0.2 µM) of the same compound?
The relative viability was 1.14.

And the relative viability (NCI-H596; first compound 0.6325 µM)?
Its relative viability is 1.01.

What about the relative viability (NCI-H596; first compound 2 µM) of the same compound?
The relative viability was 0.77.

And the relative viability (NCI-H596; first compound 6.325 µM)?
Its relative viability is 1.22.

What about the relative viability (NCI-H596; first compound 20 µM) of the same compound?
Its relative viability is 1.02.

And the relative viability (EKVX; first compound 0.2 µM)?
Its relative viability is 0.244.

And the relative viability (EKVX; first compound 0.6325 µM)?
The relative viability was 0.202.

And the relative viability (EKVX; first compound 2 µM)?
The relative viability was 0.174.

And the relative viability (EKVX; first compound 6.325 µM)?
Its relative viability is 0.213.

And the relative viability (EKVX; first compound 20 µM)?
The relative viability was 0.201.

And the relative viability (RERF-LC-KJ; first compound 0.2 µM)?
Its relative viability is 1.01.

What about the relative viability (RERF-LC-KJ; first compound 0.6325 µM) of the same compound?
Its relative viability is 0.86.

What about the relative viability (RERF-LC-KJ; first compound 2 µM) of the same compound?
The relative viability was 0.874.

And the relative viability (RERF-LC-KJ; first compound 6.325 µM)?
Its relative viability is 0.928.

And the relative viability (RERF-LC-KJ; first compound 20 µM)?
The relative viability was 0.883.

And the relative viability (HCC-827; first compound 0.2 µM)?
The relative viability was 0.22.

What about the relative viability (HCC-827; first compound 0.6325 µM) of the same compound?
The relative viability was 0.164.

And the relative viability (HCC-827; first compound 2 µM)?
The relative viability was 0.198.

What about the relative viability (HCC-827; first compound 6.325 µM) of the same compound?
Its relative viability is 0.184.

And the relative viability (HCC-827; first compound 20 µM)?
The relative viability was 0.198.

What about the relative viability (NCI-H1755; first compound 0.2 µM) of the same compound?
The relative viability was 1.04.

What about the relative viability (NCI-H1755; first compound 0.6325 µM) of the same compound?
The relative viability was 0.901.

What about the relative viability (NCI-H1755; first compound 2 µM) of the same compound?
Its relative viability is 0.846.

What about the relative viability (NCI-H1755; first compound 6.325 µM) of the same compound?
The relative viability was 1.03.

What about the relative viability (NCI-H1755; first compound 20 µM) of the same compound?
The relative viability was 0.907.

What about the relative viability (COR-L 105; first compound 0.2 µM) of the same compound?
The relative viability was 0.45.

And the relative viability (COR-L 105; first compound 0.6325 µM)?
The relative viability was 0.33.

And the relative viability (COR-L 105; first compound 2 µM)?
Its relative viability is 0.312.

And the relative viability (COR-L 105; first compound 6.325 µM)?
Its relative viability is 0.419.

What about the relative viability (COR-L 105; first compound 20 µM) of the same compound?
Its relative viability is 0.22.

What about the relative viability (LC-2-ad; first compound 0.2 µM) of the same compound?
The relative viability was 1.15.

What about the relative viability (LC-2-ad; first compound 0.6325 µM) of the same compound?
The relative viability was 0.831.

What about the relative viability (LC-2-ad; first compound 2 µM) of the same compound?
The relative viability was 0.769.

And the relative viability (LC-2-ad; first compound 6.325 µM)?
The relative viability was 0.936.

What about the relative viability (LC-2-ad; first compound 20 µM) of the same compound?
The relative viability was 0.963.

And the relative viability (COR-L23; first compound 0.2 µM)?
Its relative viability is 1.11.

And the relative viability (COR-L23; first compound 0.6325 µM)?
Its relative viability is 0.922.

And the relative viability (COR-L23; first compound 2 µM)?
Its relative viability is 0.941.

And the relative viability (COR-L23; first compound 6.325 µM)?
The relative viability was 1.17.

What about the relative viability (COR-L23; first compound 20 µM) of the same compound?
Its relative viability is 0.0199.

What about the relative viability (LCLC-97TM1; first compound 0.2 µM) of the same compound?
The relative viability was 0.776.

And the relative viability (LCLC-97TM1; first compound 2 µM)?
Its relative viability is 0.998.

And the relative viability (LCLC-97TM1; first compound 6.325 µM)?
Its relative viability is 1.08.

What about the relative viability (LCLC-97TM1; first compound 20 µM) of the same compound?
The relative viability was 0.148.

What about the relative viability (HCC-366; first compound 0.2 µM) of the same compound?
The relative viability was 1.28.

And the relative viability (HCC-366; first compound 0.6325 µM)?
The relative viability was 0.856.

What about the relative viability (HCC-366; first compound 6.325 µM) of the same compound?
Its relative viability is 0.915.

And the relative viability (HCC-366; first compound 20 µM)?
The relative viability was 0.016.

And the relative viability (NCI-H1944; first compound 0.2 µM)?
The relative viability was 0.971.

What about the relative viability (NCI-H1944; first compound 0.6325 µM) of the same compound?
Its relative viability is 0.6.

What about the relative viability (NCI-H1944; first compound 6.325 µM) of the same compound?
The relative viability was 0.836.

What about the relative viability (NCI-H1944; first compound 20 µM) of the same compound?
Its relative viability is 0.823.

And the relative viability (SK-MES-1; first compound 0.2 µM)?
Its relative viability is 0.571.

And the relative viability (SK-MES-1; first compound 0.6325 µM)?
Its relative viability is 0.365.

And the relative viability (SK-MES-1; first compound 2 µM)?
The relative viability was 0.448.

And the relative viability (SK-MES-1; first compound 6.325 µM)?
The relative viability was 0.477.

And the relative viability (SK-MES-1; first compound 20 µM)?
The relative viability was 0.516.

And the relative viability (BEN; first compound 0.2 µM)?
Its relative viability is 0.786.

What about the relative viability (BEN; first compound 0.6325 µM) of the same compound?
The relative viability was 0.774.

What about the relative viability (BEN; first compound 6.325 µM) of the same compound?
Its relative viability is 0.82.

And the relative viability (BEN; first compound 20 µM)?
Its relative viability is 0.687.

And the relative viability (LU99A; first compound 0.2 µM)?
The relative viability was 1.1.

And the relative viability (LU99A; first compound 0.6325 µM)?
Its relative viability is 0.905.

What about the relative viability (LU99A; first compound 2 µM) of the same compound?
The relative viability was 0.955.

And the relative viability (LU99A; first compound 6.325 µM)?
Its relative viability is 0.91.

What about the relative viability (LU99A; first compound 20 µM) of the same compound?
The relative viability was 0.0802.
